Laboratory results as given in publication PMC12320245 (International Journal of Biological Sciences, 2025).

Columns and labels:
[1] = tested on: cultured cortical astrocytes; assay: p-PKA substrate Western blot in astrocytes; format: cell-based; conditions: 10 µM AMX for 1 and 4 hours
PKA = PKA colorimetric activity assay (test tubes); format: biochemical; conditions: 0.1-10 µM
Experimental: PKA activity was assessed using a microplate-based kinase activity assay. Each well contained reaction buffer, a purified PKA enzyme, and test samples, followed by adding 10 μL of adenosine triphosphate (ATP) solution to initiate the reaction. Plates were incubated at 30°C for 90 minutes, before being washed four times with wash buffer to remove unbound components. Next, 25 μL each of phospho-PKA substrate antibody and horseradish peroxidase (HRP)-conjugated secondary antibody (donkey anti-rabbit IgG) were added to each well. The plates were incubated at room temperature (RT) for 60 minutes under continuous shaking to ensure uniform binding. To detect the phosphorylated substrate, 100 μL of tetramethylbenzidine (TMB) substrate was added to each well, followed by a 30-minute incubation at RT. The reaction was terminated by adding stop solution, and the absorbance was measured at 450 nm by using a microplate reader to quantify PKA activity.

TBI rats = assay: Controlled cortical impact TBI: Morris water maze; format: in vivo, rat; conditions: vs TBI-vehicle
Experimental: This study used male Sprague-Dawley rats weighing 300-350 g and aged 8 weeks, obtained from DBL Co. (Chungcheongbuk-do, Republic of Korea). The rats were housed in a controlled environment with a temperature of 20 ± 2 °C, a relative humidity of 55 ± 5%, and a 12-hour light/dark cycle. They were provided ad libitum access to food and water. To minimize stress associated with transportation, animals underwent a one-week acclimatization period before the start of the experiments. All experimental procedures were conducted in compliance with the guidelines of the National Institutes of Health for the care and use of laboratory animals and were approved by the Hallym University Institutional Animal Care and Use Committee (protocol # Hallym 2022-23, approved on July 15, 2022). This manuscript follows the principles outlined in the Animal research: reporting in vivo experiments (ARRIVE) guidelines.
A controlled cortical impact (CCI) model was used to induce TBI in rats. Animals were anesthetized with 1-1.5% isoflurane in a 30:70 oxygen-to-nitrous oxide mixture and securely positioned in a stereotaxic frame. A 3 mm craniotomy was performed using a portable drill at a site 2.8 mm lateral to the midline and 3.0 mm posterior to Bregma. TBI was induced using an Impact One™ Stereotaxic Impactor (Leica Biosystems) equipped with a 3 mm flat-tip, set to deliver an impact at a velocity of 5 m/s and a depth of 3 mm. Throughout the procedure, body temperature was maintained at 36-37.5°C using a homeothermic blanket system to prevent hypothermia. […] At designated time points (3 hours, 24 hours, or 2 weeks post-injury), animals were euthanized via transcardial perfusion with saline, followed by 4% paraformaldehyde (PFA). Brains were post-fixed in 4% PFA for 1 hour, cryoprotected in 30% sucrose, and sectioned at a 30 μm thickness using a cryostat microtome (CM1850; Leica, Wetzlar, Germany). Brain sections were stored in cryoprotectant solution at 4°C until further analysis.
The MWM is a well-established behavioral test used to assess cognitive function in rodents. […] The following parameters were recorded during the training sessions: 1) escape latency (time taken to reach the platform), 2) distance traveled to locate the platform, and 3) the number of target crossings (times the platform location was crossed). […] The time spent in the target quadrant (where the platform had been located during training) and the number of crossings over the platform location were recorded. Behavioral data, including escape latency, distance traveled, target crossings, and time spent in the target quadrant, were tracked and analyzed using smart video-tracking software (Panlab, Carrer de l'Energia, Spain).

astrocytes = assay: Lysosomal zinc (FluoZin-3 with LysoTracker); format: cell-based; conditions: 10 μM AMX for 30 minutes
IκB kinase ε (IKK-ε) = tested on: IκB kinase ε (IKK-ε); set-up: method as in PMID 23396208; conditions: cited from earlier work
[2] = tested on: primary hippocampal neurons; assay: Scratch injury: cAMP ELISA; format: cell-based, rat; conditions: 10 μM AMX immediately after scratch, 6 hours post-injury
Experimental: Primary hippocampal neurons were obtained from embryonic day 18 (E18) Sprague-Dawley rat embryos. Pregnant rats were anesthetized using 2-3% isoflurane in a gas mixture of 70% nitrous oxide and 30% oxygen. Following euthanasia, the hippocampi were carefully dissected, minced, and enzymatically dissociated using TrypLE Express (Gibco, NY, USA) for 10 minutes at 37°C. The tissue was further mechanically dissociated using fire-polished glass pipettes, and the resulting cell suspension was filtered through a 70 μm cell strainer to remove debris. Neurons were seeded at a density of 3 × 10^5 cells per well in 24-well plates pre-coated with poly-L-lysine (Sigma-Aldrich, Saint Louis, MO, USA). Cells were maintained in neurobasal medium supplemented with B-27 (Thermo Fisher Scientific, Waltham, MA, USA), GlutaMAX (Gibco), and penicillin-streptomycin. The cultures were incubated at 37.5°C in a humidified atmosphere containing 5% CO₂. After seven days of growth, neurons were fixed with 4% paraformaldehyde (PFA) for 15 minutes at room temperature and subsequently stored at 4°C until their further use for immunostaining. A scratch injury model was used to mimic TBI in vitro. […] After the treatment period, neuronal damage and recovery were assessed using appropriate evaluation methods. […]

CC(C)c1ccc2oc3nc(N)c(C(=O)O)cc3c(=O)c2c1 [AMX, amlexanox]
p-PKA levels [1]: increased p-PKA levels | PKA activity in test tubes (PKA): activates PKA | MWM distance to the hidden platform (TBI rats; days 8-12 post-TBI): reduced target distances | MWM escape latency (TBI rats; days 8-12 post-TBI): shorter escape latency | MWM platform crossings (TBI rats; probe trial): more frequent platform crossings | MWM time spent in the target quadrant (TBI rats; probe trial): increased time spent in the target quadrant | lysosomal zinc (FluoZin-3 fluorescence) (astrocytes): significant increase in zinc fluorescence within lysosomes | inhibition of IKK-ε (IκB kinase ε (IKK-ε)): dual inhibitor | cAMP levels after scratch injury (ELISA) [2]: restored cAMP and p-PKA levels
